The source of these data is ChEMBL document CHEMBL4011661, “The Fragment Network: A Chemistry Recommendation Engine Built Using a Graph Database” (J Med Chem, 2017).

What is called IC50 is the concentration at which inhibition is half-maximal.

System in the first assay: not listed separately
Description: Inhibition of 5-FAM peptide binding to Hepatitis C virus full length NS3/4A helicase after 30 mins by FRET assay. Further details: species or system Hepacivirus hominis.
In turn, `NCc1ccc(Oc2ccccc2)c(Cl)c1` showed an IC50 of 41 µM.

In turn, `NCc1ccc(F)c(Oc2ccccc2)c1F` returned an IC50 of 20 µM.

For the compound `NCc1cc(F)c(Oc2ccccc2)c(F)c1`, the concentration for half-maximal inhibition (IC50) stood at 34 µM.

For the compound `NCc1cccc(Oc2ccccc2)c1`, the IC50 is 130 µM.

For `NCc1ccc(Oc2ccccc2)cc1`, the IC50 was found to be 500 µM.

For the compound `NCc1ccc(C(=O)c2ccccc2)cc1`, the IC50 stood at 180 µM.

The target in the next assay is RAC-beta serine/threonine-protein kinase (Homo sapiens, UniProt P31751). The assay can be described thus: Inhibition of PKBbeta (unknown origin) in presence of [33P-gamma]ATP by scintillation counting.
RAC-beta serine/threonine-protein kinase, sequence (P31751 whole entry): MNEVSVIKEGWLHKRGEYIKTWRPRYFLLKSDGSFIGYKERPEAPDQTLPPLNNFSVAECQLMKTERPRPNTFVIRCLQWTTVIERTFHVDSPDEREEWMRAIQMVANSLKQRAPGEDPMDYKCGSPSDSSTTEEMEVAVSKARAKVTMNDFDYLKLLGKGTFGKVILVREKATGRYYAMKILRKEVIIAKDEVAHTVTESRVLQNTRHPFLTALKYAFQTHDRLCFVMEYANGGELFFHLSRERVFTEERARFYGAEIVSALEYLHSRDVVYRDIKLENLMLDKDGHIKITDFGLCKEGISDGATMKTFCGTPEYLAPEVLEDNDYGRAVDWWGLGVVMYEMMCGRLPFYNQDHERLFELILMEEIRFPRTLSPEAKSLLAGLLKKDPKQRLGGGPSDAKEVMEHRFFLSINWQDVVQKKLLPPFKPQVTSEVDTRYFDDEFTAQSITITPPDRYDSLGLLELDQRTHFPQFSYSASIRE
In the case of `Cc1n[nH]c(N)c1-c1ccccc1`, the IC50 came to 660 µM.

As for `Cc1n[nH]c(C)c1-c1ccccc1`, the IC50 was found to be 72 µM.
